Laboratory results taken from patent US7576101B2, “Composition for and treatment of demyelinating diseases and paralysis by administration of remyelinating agents” (Elan Pharmaceuticals, Inc., priority 2003, dated 2009).
Entries after “also recorded” stand apart in the source; their conditions may differ.

Columns and labels:
[1] = test system: α4 integrin on lymphocytes and monocytes; assay: Chronic EAE in guinea pigs: FACS analysis of α4 integrin on circulating lymphocytes and monocytes; assay type: in vivo, guinea pig
Description: FACS Analysis. On day 80 post-immunization, heparinized blood samples were collected from non-EAE animals, saline-treated animals, N-[N-(3-pyridinesulfonyl)-L-3,3-dimethyl-4-thiaprolyl]-O-[1-methylpiperazin-4-ylcarbonyl]-L-tyrosine isopropyl ester-treated animals and animals 10 days following withdrawal of N-[N-(3-pyridinesulfonyl)-L-3,3-dimethyl-4-thiaprolyl]-O-[1-methylpiperazin-4-ylcarbonyl]-L-tyrosine isopropyl ester. All samples were maintained at 4° C. for all procedures. 150 μl samples were exposed to primary antibody for 30 minutes, washed twice, and then incubated with PE-conjugated goat anti-mouse IgG Fc in the presence of 5% guinea pig serum (Beckman Coulter #PN EM055 1). Red blood cells were lysed with Becton-Dickinson lysing solution and the samples were examined on a FACScan flow cytometer (Becton Dickinson, Mountain View, Calif.) gating on different cell populations by light scatter.

[2] = test system: IL-2, IL-10, MCP-1; assay: Chronic EAE in guinea pigs: quantitative reverse transcription-PCR of spinal cord; assay type: in vivo, guinea pig; conditions: for cytokine RNA (IL-2, IL-10, MCP-1) in spinal cord after withdrawal: 10 days after removal
Description: Quantitative Reverse Transcription-PCR: IL-2, IL-10, MCP-1. RNA was isolated from 30 mg of frozen guinea pig spinal cord using the S.N.A.P.™ (simple nucleic acid preparation) total RNA Isolation Kit (Invitrogen) according to manufacturer's instructions, modified to include a second DNAse treatment step followed by an additional purification over the S.N.A.P. column.
Primer/probe sequences and concentrations for IL-2, IL-10, and MCP-1 are given in Table 7, as well as the standard RNA used for each gene. RT-PCR was carried out in triplicate using the ABI PRISM® 7700 Sequence Detection System. 50 μl reactions contained 10 to 800 ng of total RNA and primers and probes at the concentrations indicated above in reaction buffer consisting of 6.67% glycerol (Amresco); 5.5 mM MgCl; 300 μM dATP, dCTP, dGTP, and dUTP; 100 nM probe; 1.25 unit of AmpliTaq Gold® DNA Polymerase (Applied Biosystems); 1× TaqMan® Buffer A (TaqMan® PCR Core reagents kit, Applied Biosystems), 20 units of RNase Inhibitor (Roche); 1.25 unit of murine leukemia virus (MULV) Reverse Transcriptase (Applied Biosystems). Reverse-transcription of RNA was carried out at 48° C. for 30 min., followed by a 10 min. denaturing step at 95° C. PCR was carried out by 40 thermo-cycles consisting of 95° C. for 15 seconds followed by 60° C. for 1 minute. Each plate included a standard curve using the standard RNA listed in Table 7 and two additional control samples: 1) a positive control RNA sample used on all plates, 2) a non-template control (NTC).
The correlation coefficients of the standard curves were greater than 0.990 for all data shown. The coefficients of variation for sample triplicates were less than 0.2. Since the RNA used for the standard curve is a heterogeneous mix of RNA containing a constant but unknown amount of the target message, the numbers calculated are relative.

[3] = molecular target: T1, α4β1 (Homo sapiens, UniProt P05556+P13612); assay: In vitro saturation assay for determining binding of candidate compounds to α4β1 (Jurkat cells in plasma, 15/7 antibody, FACS); assay type: cell-based; conditions: guinea pig, 30 mg/kg twice a day subcutaneously
T1 construct: endogenous in cells; host or cells: Jurkat cells
T1 sequence (P13612 34-1032): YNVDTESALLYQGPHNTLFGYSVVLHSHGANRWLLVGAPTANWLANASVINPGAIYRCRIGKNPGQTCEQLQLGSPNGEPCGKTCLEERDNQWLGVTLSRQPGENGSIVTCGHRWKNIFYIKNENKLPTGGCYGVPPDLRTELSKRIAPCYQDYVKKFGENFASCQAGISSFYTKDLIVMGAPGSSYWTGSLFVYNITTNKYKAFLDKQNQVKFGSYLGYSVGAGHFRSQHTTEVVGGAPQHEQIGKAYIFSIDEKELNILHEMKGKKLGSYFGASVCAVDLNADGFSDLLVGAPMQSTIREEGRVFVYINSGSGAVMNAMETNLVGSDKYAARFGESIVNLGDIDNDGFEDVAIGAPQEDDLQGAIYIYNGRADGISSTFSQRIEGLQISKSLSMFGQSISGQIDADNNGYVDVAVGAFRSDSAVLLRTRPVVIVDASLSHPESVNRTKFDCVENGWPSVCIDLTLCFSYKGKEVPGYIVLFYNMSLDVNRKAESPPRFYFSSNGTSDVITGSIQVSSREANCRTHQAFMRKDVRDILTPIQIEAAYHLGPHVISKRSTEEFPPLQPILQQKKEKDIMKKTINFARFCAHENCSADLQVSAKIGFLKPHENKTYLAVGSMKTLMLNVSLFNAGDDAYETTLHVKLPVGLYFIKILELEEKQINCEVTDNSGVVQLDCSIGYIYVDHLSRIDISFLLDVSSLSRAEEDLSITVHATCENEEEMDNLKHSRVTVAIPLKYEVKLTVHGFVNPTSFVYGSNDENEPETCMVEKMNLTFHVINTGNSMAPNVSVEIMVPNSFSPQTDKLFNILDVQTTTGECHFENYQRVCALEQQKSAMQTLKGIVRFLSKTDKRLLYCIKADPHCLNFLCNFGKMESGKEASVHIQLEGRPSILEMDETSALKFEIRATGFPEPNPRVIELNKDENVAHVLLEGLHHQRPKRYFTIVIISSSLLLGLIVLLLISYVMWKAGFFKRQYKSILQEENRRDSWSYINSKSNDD
T1 sequence (P05556 21-798): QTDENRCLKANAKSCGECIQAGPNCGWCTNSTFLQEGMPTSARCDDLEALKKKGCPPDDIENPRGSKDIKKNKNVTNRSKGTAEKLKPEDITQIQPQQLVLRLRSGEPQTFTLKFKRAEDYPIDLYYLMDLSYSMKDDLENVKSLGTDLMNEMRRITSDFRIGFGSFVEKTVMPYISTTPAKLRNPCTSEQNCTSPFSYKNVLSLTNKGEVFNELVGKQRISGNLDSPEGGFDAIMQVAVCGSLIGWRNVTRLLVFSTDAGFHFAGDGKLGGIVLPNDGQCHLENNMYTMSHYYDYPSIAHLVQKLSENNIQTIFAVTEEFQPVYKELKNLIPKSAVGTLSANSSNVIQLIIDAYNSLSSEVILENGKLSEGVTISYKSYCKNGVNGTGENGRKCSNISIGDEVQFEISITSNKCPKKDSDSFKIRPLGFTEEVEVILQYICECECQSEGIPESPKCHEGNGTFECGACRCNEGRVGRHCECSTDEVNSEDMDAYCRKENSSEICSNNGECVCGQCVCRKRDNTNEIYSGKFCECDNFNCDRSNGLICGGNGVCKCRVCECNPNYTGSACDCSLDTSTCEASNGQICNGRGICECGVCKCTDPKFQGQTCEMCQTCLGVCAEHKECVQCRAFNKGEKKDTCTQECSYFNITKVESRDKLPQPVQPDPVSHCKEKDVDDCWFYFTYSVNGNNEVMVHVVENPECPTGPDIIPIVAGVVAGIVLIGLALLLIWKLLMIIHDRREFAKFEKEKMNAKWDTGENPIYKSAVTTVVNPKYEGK
Description: The following describes an in vitro assay to determine the plasma levels needed for a compound to be active in the Experimental Autoimmune Encephalomyelitis (“EAE”) model, described in the next example, or in other in vivo models.
Log-growth Jurkat cells are washed and resuspended in normal animal plasma containing 20 μg/ml of the 15/7 antibody (described in the above example).
The Jurkat cells are diluted two-fold into either normal plasma samples containing known candidate compound amounts in various concentrations ranging from 66 μg/mL to 0.01 μg/mL, using a standard 12 point serial dilution for a standard curve, or into plasma samples obtained from the peripheral blood of candidate compound-treated animals.
Cells are then incubated for 30 minutes at room temperature, washed twice with phosphate-buffered saline (“PBS”) containing 2% fetal bovine serum and 1 mM each of calcium chloride and magnesium chloride (assay medium) to remove unbound 15/7 antibody. […]
Cells are washed twice with assay medium and resuspended in the same. They are then analyzed with a standard fluorescence activated cell sorter analysis as described in Yednock et al., J. Bio. […]
The data is then graphed as fluorescence versus dose, e.g., in a normal dose-response fashion. […]

[4] = test system: demyelinated spinal cord lesions in chronic EAE of female Hartley guinea pigs; assay: Spontaneous remyelination in chronic EAE guinea pigs (solochrome-R-cyanin, toluidine blue semithin sections, EM, lesion area analysis); assay type: in vivo, guinea pig; conditions: for area of thinly myelinated axons in toluidine blue semithin sections vs saline / electron microscopy of lesioned spinal cord: day 30 of treatment
[5] = test system: experimental allergic encephalomyelitis in female Hartley guinea pigs; assay: Chronic EAE in guinea pigs: histological analysis and pathological score of brain and spinal cord; assay type: in vivo, guinea pig; conditions: for spinal cord histology after 20 days of treatment (day 60 post immunization) / spinal cord histology after 40 days of treatment (day 80 post immunization): SCR and H-E sections, vs saline
Description: Animal Sacrifice and Histological Analysis. Untreated, chronic EAE animals (n=5) were sacrificed on day 40, as well as non-EAE controls (n=5). Following each 10-day treatment interval, 5 animals from each group were sacrificed (0.25 mL sodium pentobarbital), blood samples were collected for FACS analysis (see below), and the brain and spinal cord dissected and sectioned. Three spinal sections were used, corresponding to lumbar, thoracic and cervical regions of the cord. The brain was cut into five transverse sections. The first three proximal sections were combined in one block, and the last two distal sections in another. Tissues were fixed in 10% formalin and embedded in paraffin. […] sections were stained with hematoxylin-eosin (H-E) or solochrome-R-cyanlin (SCR) and evaluated by a blinded observer in each of four categories: (1) meningeal inflammation, (2) perivascular infiltration, (3) encephalitis or (4) myelitis and demyelination (Table 6). The combined pathological score represents the total score (out of a potential 20) from all 5 CNS sections in each animal.
Statistical Analysis. Statistical analysis was performed using SigmaStat v2 software (SPSS Inc.). Clinical scores were assessed using the Mann Whitney rank sum test, while pathological scores were assessed with a two-Way ANOVA. Quantitative abnormalities were compared using Kruskal-Wallis ANOVA on ranks. In each case, p<0.05 was considered significant. A linear regression was performed on the mean cell counts in the spinal cord.

[6] = listed as N-[N-(3-pyridinesulfonyl)-L-3,3-dimethyl-4-thiaprolyl]-O-[1-methylpiperzain-4-yl

Structure (SMILES): CC(C)OC(=O)[C@H](Cc1ccc(OC(=O)N2CCN(C)CC2)cc1)NC(=O)[C@H]1N(S(=O)(=O)c2cccnc2)CSC1(C)C [N-[N-(3-pyridinesulfonyl)-L-3,3-dimethyl-4-thiaprolyl]-O-[1-methylpiperazin-4-ylcarbonyl]-L-tyrosine isopropyl ester]
- percentage of α4 integrin bright lymphocytes in the circulation after removal ([1]; day 80, 10 days after withdrawal): returned to saline-treated levels
- increase of α4 integrin expression on circulating monocytes in EAE ([1]; day 80 post immunization): not affected
- α4 integrin bright lymphocytes in the circulation vs saline-treated animals ([1]; day 80 post immunization): large increase
- cytokine RNA (IL-2, IL-10, MCP-1) in spinal cord after withdrawal [2]: returned to levels comparable to saline-treated animals
- cytokine RNA (IL-2, IL-10, MCP-1) in spinal cord after withdrawal [2, 6]: rose to levels comparable to those in saline-treated animals
- IL-2 RNA in lumbar spinal cord ([2]; during treatment, vs saline): almost no detectable
- expression of inflammatory cytokine RNA (IL-2, IL-10, MCP-1) in spinal cord ([2]; during treatment, vs saline): significant reduction; also recorded: marked decrease
- receptor saturation levels maintained at all times [3]: > 10 nm
- incidence of remyelination (lesions showing myelin pallor as percent of all lesions) vs saline ([4]; 10-40 days, time-dependent): increased the incidence of remyelination
- appearance of spinal cord lesions after 10 days of treatment (solochrome-R-cyanin) ([4]; 10 days): minimal evidence of myelin pallor
- appearance of spinal cord lesions after 20 days of therapy (solochrome-R-cyanin) [4]: many lesions exhibited diffuse pale blue staining
- appearance of spinal cord lesions after 20 days of therapy (solochrome-R-cyanin) [4, 6]: diffuse blue stain covering the plaque
- appearance of spinal cord lesions after 40 days of therapy (solochrome-R-cyanin) [4]: presented as shadow plaques
- appearance of spinal cord lesions after 40 days of therapy (solochrome-R-cyanin) [4, 6]: majority of lesions showed clear myelin pallor
- area of remyelination as percent of total lesion area ([4]; after 20, 30 or 40 days of therapy): 50%
- degree of remyelination of individual lesions ([4]; after 20, 30 or 40 days of treatment): 0-100%
- area of thinly myelinated axons in toluidine blue semithin sections vs saline [4]: greatly expanded
- electron microscopy of lesioned spinal cord [4]: multiple thin myelin layers around large caliber axons
- area of thinly myelinated axons in toluidine blue semithin sections vs saline [4, 6]: more extensive
- electron microscopy of lesioned spinal cord [4, 6]: multiple layers of thin myelin wrappings around large diameter axons
- animals that regained motor function ([4]; paralyzed guinea pigs (clinical score 2) treated up to 40 days): 50%
- mean pathological score in each of four categories (meningeal inflammation, perivascular infiltration, encephalitis/myelitis, demyelination) vs saline ([5]; 10-40 days treatment, p<0.001 two-way ANOVA): significant decrease
- spinal cord histology after 20 days of treatment (day 60 post immunization) [5]: much smaller areas of demyelination
- spinal cord histology after 40 days of treatment (day 80 post immunization) [5]: almost no meningeal and perivascular infiltration
- spinal cord histology after 20 days of treatment (day 60 post immunization) [5, 6]: much smaller area of demyelination
- spinal cord histology after 40 days of treatment (day 80 post immunization) [5, 6]: almost no meningeal and perivascular inflammation
- mean combined pathological score after withdrawal for 10 days vs continued treatment ([5]; p<0.05 Kruskal Wallis ANOVA on ranks with SNK test): significantly higher
